SMILES strings stand for the structures. Counter-ions that a name gives are not always drawn. Like-named read-outs stand apart in the source and are kept apart here. Bridge positions count the residues as written; N and C are the ends. Square brackets hold non-standard residues; d marks the D form. Peptide text beside a SMILES is read from it. * marks the point of attachment. X1 = CC[C@H](C)CCCCC(=O)*; Dab = NCC[C@H](N)C(=O)O

Series [1] has as its system A. baumannii (CS01). Kind of series: Neutropenic mouse thigh infection model, bacterial counts after PMB. It is filed as in vivo, Acinetobacter baumannii. How it is done:
A clinical strain of A. baumannii (CS01), isolated from a patient with a meningitis (Seville, Spain) before treatment with CST, was used during this study ([López-Rojas et al., 2013]). Before each experiment, the strain was cultured in 5 ml of cation adjusted Muller-Hinton broth II (MHB) (Biomérieux, Marcy-l’Etoile, France) and incubated overnight at 37 ± 2°C with constant shaking (150–170 rpm). This overnight suspension was diluted 1:50 in MHB and was incubated with constant shaking at 35°C during 2 h until an OD600nm of 0.26 was achieved (Ultrospec10, Biochrom Ltd., Cambridge, United Kingdom), corresponding to a bacterial count of 10^8 CFU/ml in exponential growth phase. The bacterial suspension was centrifuged (3,000 rpm, 6 min), broth was removed and replaced by the same volume of sterile saline solution. This suspension was then diluted to obtain inocula of 10^7 and 10^6 CFU/ml. Samples of the inoculation solutions were serially diluted on saline, plated on Muller-Hinton agar plates (Biomérieux, Marcy-l’Etoile, France) and incubated overnight at 37°C.
(§1) Animal experiments were carried out according to the EC Directive 2010/63/EU. They were approved by the local ethics committee (COMETHEA) and registered by the French Ministry of Higher Education and Research (approval numbers: 2019022216097190 and 2017072415099072). Five-week-old male Swiss RjOrl mice (n = 296) weighing 34 ± 2 g (mean ± standard deviation [SD]) were obtained from Janvier Labs (Saint-Berthevin, France). All animals were acclimatized in ventilated racks in a temperature-regulated environment with a 12 h light-dark cycle, with free access to food and water for a minimum of 5 days before the beginning of the experiment. Neutropenia was induced by intraperitoneal administrations of cyclophosphamide at 150 and 100 mg/kg, 4 days and 1 day prior to experimental infection, respectively ([Landersdorfer et al., 2018]). Thigh infection was induced by intramuscular administration of 0.1 ml of a bacterial suspension of 10^6, 10^7 or 10^8 CFU/ml (corresponding to 10^5, 10^6 and 10^7 CFU/thigh, respectively), into one of the posterior thigh muscles. Thus, three groups of mice were distinguished according to the inoculum injected (n = 76, 146 and 74 for 10^5, 10^6 and 10^7 CFU/thigh, respectively) Each group was divided into two subgroups: treated (n = 48, 116 and 45 for 10^5, 10^6 and 10^7 CFU/thigh, respectively) and control mice (n = 28, 30 and 29 for 10^5, 10^6 and 10^7 CFU/thigh, respectively).
(§2) Two hours after bacterial inoculation, mice received either a single subcutaneous administration of PMB (1, 15 or 40 mg/kg for mice infected with 10^6 and 10^7 CFU/thigh, and 15 or 40 mg/kg for mice infected with 10^5 CFU/thigh), or a subcutaneous administration of saline solution (control group).
Mice (n = 240) were sacrificed at 6 different time points: just prior to the start of the therapy (0 h) and at 2, 4, 6, 8 and 24 h after PMB administration. A total of 3-6 mice were sacrificed at each time point. Thigh muscles were collected and homogenized with 1 ml of sterile saline solution using potters Elvehjem-type tissue grinders (Thermo Fischer Scientific, Illkirch-Graffenstaden, France). Homogenates were serially diluted in saline, plated on Muller-Hinton agar plates and incubated overnight at 37°C. Bacterial colonies were counted and expressed as log10 numbers of CFU/thigh. The lower limit of quantification (LOQ) was set to 800 CFU/ml corresponding to 2.9 log10 CFU/thigh.

The conditions of series [2]: SC, highest dose 32 mg/kg; ref Landersdorfer et al., 2018; cited from earlier work. The protocol: These new study results can be compared with those previously obtained in relatively similar conditions, at least from PK standpoint ([Landersdorfer et al., 2018]). In both studies PMB was administered subcutaneously to neutropenic mice infected with K. pneumoniae ([Landersdorfer et al., 2018]) or A. baumannii, leading to saturable absorption rate. However although Landersdorfer et al. used a model with parallel linear and saturable absorption, an Emax model was sufficient to provide satisfactory fit of our data. Noticeably, while this nonlinear absorption was important to consider for PK and ...

The nature of series [3]: PMB pharmacokinetics after a single subcutaneous dose in neutropenic thigh-infected mice (two-compartment model). It is filed as in vivo. Conditions: for Tmax: neutropenic mice infected with 10^6 CFU/thigh, n = 3 per time point, read-out: time to peak (Tmax). How it is done:
as §1, §2
The PK of PMB was determined in neutropenic mice infected with the bacterial inoculum size of 10^6 CFU/thigh (n = 56). Mice were anesthetized by isoflurane (AbbVie, Rungis, France) inhalation (3%) for 5 min at each sampling time. Blood samples were collected by intracardiac puncture into heparinized tubes up to 24 h after PMB administration for a total of 7 time points per dose level (n = 3 animals per time point). Plasma was separated from the whole blood after centrifugation at 4,000 rpm for 10 min at 4°C and divided into two samples. The first sample was used to determine total PMB concentrations and the second one (0.15 ml) was ultrafiltered (4000 rpm for 30 min at room temperature) using Centrifree® ultrafiltration devices from Millipore (Merck KGaA) to determine unbound PMB concentrations and consequently protein binding. The non-specific binding of PMB to the membrane of the Centrifree® ultrafiltration devices ([Sader et al., 2012]) was determined by ultrafiltration of PMB solutions in phosphate buffer (pH7.2) at concentrations ranging from 0.2 to 7.5 mg/L and was used to correct ultrafiltrate concentrations. Plasma samples and ultrafiltrates were stored at −20°C until further analysis. Total and unbound PMB concentrations were determined by a liquid chromatography tandem mass spectrometry (LS-MS/MS) method (Supplemental Material).
A PKPD model was developed in two steps to quantify the exposure-effect relationship of PMB in infected mice. First, time courses of total and unbound PMB concentrations were modeled and then, PK parameters were fixed during development of the PD part of the PKPD model.
Different structural models including one, two or three compartments, linear, nonlinear (Michaelis-Menten) or parallel linear/nonlinear elimination were evaluated to describe PK data. Models with linear and nonlinear absorption were also tested. Additive, proportional and exponential residual error models were explored.
Model selection was based on objective function value (OFV) and goodness of fit (GOF) plots. When two models were nested, a decrease in OFV of at least 3.84 (chi square 1df p = 0.05) was needed to select the most complex model. […]

The mark [4] stands for this setting: final PK model, estimate (%RSE).

A word on the Tmax: it is the time at which the peak concentration occurs. Take `CC[C@H](C)CCCCC(=O)N[C@@H](CCN)C(=O)N[C@H](C(=O)N[C@@H](CCN)C(=O)N[C@H]1CCNC(=O)[C@H]([C@@H](C)O)NC(=O)[C@H](CCN)NC(=O)[C@H](CCN)NC(=O)[C@H](CC(C)C)NC(=O)[C@@H](Cc2ccccc2)NC(=O)[C@H](CCN)NC1=O)[C@@H](C)O` [PMB, Polymyxin B sulfate] (X1-[Dab]T[Dab][Dab][Dab][dF]L[Dab][Dab]T; lactam 4-C): the “efficacy of PMB” value in series [1] (15 mg/kg SC, two highest inocula (10^6 and 10^7 CFU/thigh)) is “moderate efficacy”. For the same molecule, the bacterial load reduction in series [1] (24 h after 15 mg/kg PMB SC, inoculum 10^5 CFU/thigh) came to 2.6 ± 1.2 log10 CFU/thigh; in series [1] (24 h after 40 mg/kg PMB SC, inoculum 10^5 CFU/thigh), 2.5 ± 2.3 log10 CFU/thigh; in series [1] (24 h after 40 mg/kg PMB SC, inoculum 10^6 CFU/thigh) it was 3.5 ± 0.9 log10 CFU/thigh; in series [1] (24 h after 40 mg/kg PMB SC, inoculum 10^7 CFU/thigh), 2.1 ± 1.4 log10 CFU/thigh. Moreover, in series [1] (PMB 1 mg/kg single SC dose, data not shown), the “bacterial counts compared with control group” value is “no differences in bacterial counts with the control group”. Moreover, in series [2], the “peak concentrations at the highest dose” value is listed as roughly 20 mg/L. Besides, the “increase of total Cmax when dose increased from 1 to 40 mg/kg” value in series [3] (SC, plasma, infected mice) was 15 fold. For the same molecule, the Maximum absorption rate in series [3] (final PK model, saturable SC absorption, estimate (%RSE), doses 1, 15, 40 mg/kg) is on record as 14.7 (10.3) mg/h/kg. Besides, in series [3] (setting [4]), the “Amount in the subcutaneous compartment that produces 50% of the maximum absorption rate” value was 2.24 (41.4) mg/kg. Also, the “Distribution volume of the central compartment” value in series [3] (setting [4]) is listed as 0.740 (16.7) L/kg. Moreover, the “Distribution volume of the peripheral compartment” value in series [3] (setting [4]) is given as 0.743 (16.4) L/kg. Besides, the Intercompartmental clearance in series [3] (setting [4]) was 0.315 (27.3) L/h/kg. For the same molecule, the Cmax in series [3] (male, Swiss RjOrl, mouse, plasma, sc, 1 mg/kg, plasma, single SC dose 1 mg/kg, mean ± SD, infected mice 10^6 CFU/thigh, LC-MS/MS, SD, read-out: Total PMB peak concentration (Cmax)) came out at 920 ± 140 ng/mL; in series [3] (male, Swiss RjOrl, mouse, plasma, sc, 40 mg/kg, plasma, single SC dose 40 mg/kg, mean ± SD, infected mice 10^6 CFU/thigh, LC-MS/MS, SD, read-out: Total PMB peak concentration (Cmax)) it was 13800 ± 810 ng/mL; in series [3] (male, Swiss RjOrl, mouse, plasma, sc, 40 mg/kg, this study, SC, highest dose 40 mg/kg, read-out: peak concentrations at the highest dose), 15000 ng/mL. Further, the CL/F in series [3] (male, Swiss RjOrl, mouse, plasma, sc, final PK model, linear elimination, estimate (%RSE), read-out: Clearance (converted)) was 7.28 mL/min/kg. Moreover, the Tmax in series [3] (male, Swiss RjOrl, mouse, plasma, single SC dose 1 mg/kg, LC-MS/MS) stood at 0.5 h; in series [3] (male, Swiss RjOrl, mouse, plasma, single SC dose 40 mg/kg, LC-MS/MS) it was 2 h.

These data come from publication PMC8966651, “PKPD Modeling of the Inoculum Effect of Acinetobacter baumannii on Polymyxin B in vivo” (Frontiers in Pharmacology, 2022).
